Tests used:
[1] = system: male corn earworm (CEW, Helicoverpa zea); assay: field trapping of male CEW in Hartstack traps, nonanal dose study; type: in vivo
Procedure: FIG. 10C is a graph showing the effectiveness of different doses of nonanal in field trapping of male corn earworm (CEW, Helicoverpa zea) using a commercial sex pheromone lure with different doses of nonanal. Effectiveness is measured as the number of male CEW captured per trap per day. The data for the two bars on the left are from traps with no commercial pheromone dispenser, while the data for the six bars on the right are from traps with the commercial pheromone dispenser in combination with the dispenser containing either paraffin oil alone (0 percent (%) nonanal) or a paraffin oil solution comprising 0.5% to 8% nonanal (weight to weight relative to the amount of the main component of the commercial sex pheromone).
Some of the traps also contained, adjacent to the glass vials, a lure comprising a rubber septum formulated with the commercial CEW sex pheromone. Assuming that the commercial pheromone lure contained about 2 mg of the major component (i.e., (Z)-11-hexadecenal), the solutions in the glass vials were prepared to contain various amounts (0%, 0.5%, 1%, 2%, 4%, or 8%) of nonanal on a weight to weight basis with the (Z)-11-hexadecenal.

male CEW antenna = assay: GC-EAD of female sex pheromone gland extract on male CEW antenna; design: species or system Helicoverpa zea; conditions: compound present in CEW female sex pheromone gland extract
Procedure: Based on the finding that nonanal attracts male CEW in laboratory and field behavioral studies, and as described hereinbelow, a study of the female sex pheromone gland extract of Helicoverpa zea was performed using a gas chromatography-electroantennograom detector (GC-EAD), a device that couples a GC to an insect antenna, the olefactory organ of insects that serves as a biological detector. In this device, the GC separates chemicals in a mixture and presents them to the antenna, and its electrophysiological responses reveal which chemicals it senses. […]
The sex pheromone glands of multiple CEW females were dissected and the contents extracted with hexane. […] In parallel to the GC, the electrophysiological response of the antenna is recorded to identify the active compounds. […] Gland extracts were also analyzed using gas chromatography-mass spectrometry (GC-MS) (6890 GC and 5975 MS, Agilent Technologies, Palo Alto, California, United States of America) The GC-MS was operated in pulsed splitless mode (15 psi for 0.5 min, then 6 psi) and equipped with a DB-WAXetr column (30 m×0.25 mm, df=0.25 μm, Agilent Technologies, Palo Alto, California, United States of America), and helium was used as the carrier gas at an average velocity of 34 cm/s. […]

Drosophila melanogaster = assay: dual choice trapping cage assay with commercial fruit fly traps and lure (TERRO); type: in vivo; conditions: 24 hours
Procedure: FIG. 7A is a schematic drawing showing a design for a dual choice free flight cage trapping assay used to determine the effect of nonanal on the trapping of fruit flies (Drosophila melanogaster) when used in combination with a commercial fruit fly lure. Inside a 30 centimeter (cm) by 30 cm cage are placed two commercial fruit fly traps. Inside each commercial fruit fly trap is placed 1 milliliter (mL) of a commercial fruit fly lure. In addition, in one trap (Trap 1) is placed a 1.5 mL vial containing 50 microliters (μL) dimethyl sulfoxide (DMSO), while in the other trap (Trap 2) is placed a 1.5 mL vial containing 50 μL of a solution of nonanal in DMSO. For each experiment 40 to 120 fruit flies are used. The attraction of starved Drosphila melanogaster males and females to a commercial lure and trap to which various amounts of nonanal were added is shown in FIG. 7B. In all experiments, 40 to 120 3-4 day old, 24 hours starved flies (males and females) were given a choice between two commercial fruit fly traps (sold under the tradename TERRO® traps; Model #BT2502; Senoret Chemicals Co., Inc., Lititz, Pennsylvania, United States of America). […] After 24 hours, flies in both traps were counted. […] After 24 hours, flies in both traps were counted.

Compound: CCCCCCCCC=O [nonanal]
- trap effectiveness with commercial CEW sex pheromone ([1]; e.g. 0.5% to 4% nonanal (w/w to (Z)-11-hexadecenal) added to trap with commercial CEW sex pheromone): increased the trap effectiveness
- effectiveness in capturing male CEW, no commercial pheromone ([1]; traps containing only nonanal in paraffin oil, no commercial CEW sex pheromone lure): not effective in capturing male CEW
- EAD response of the antenna (male CEW antenna): elicit an EAD response in the antenna
- flies trapped, nonanal trap versus trap without nonanal (Drosophila melanogaster; increasing amount of nonanal in 50 μl DMSO with 1 mL commercial fruit fly lure, other trap lure plus DMSO): more flies are trapped
- attraction of flies to commercial fruit fly lure at too much nonanal (Drosophila melanogaster; too much nonanal in 50 μl DMSO with 1 mL commercial fruit fly lure): interferes with attraction of flies to the commercial fruit fly lure

Reference: patent US20250295109A1, “UNIVERSAL SYNERGIST FOR INSECT ATTRACTANTS” (North Carolina State University, priority 2022, published 2025)
